Reference: PubChem BioAssay AID839 (SRMLSC, 2007)
Active and inactive are the calls of the source. No rule for the calls is given here.

Assay: yeast growth inhibition, transport mutant vs wild type, confirmation, post-Golgi transport mutant, OD600 growth rate (AID 839)
Conditions: yeast transport mutant vs control strains, stronger effect = higher value
[1] = measured here: mutant growth inhibition 20 uM, at 20 µM
[2] = measured here: wild type growth inhibition 20 uM, at 20 µM
[3] = measured here: wild type growth inhibition 40 uM, at 40 µM

Compound | growth inhibition (at 40 µM) | growth inhibition [1] | growth inhibition [2] | growth inhibition [3]
Cc1ccc(OCC(O)CN2CCN(Cc3ccc4c(c3)OCO4)CC2)c(C)c1 (stereo unspecified) | 33% | 12.9% | 2.63% | 10%
Clc1cc(Br)ccc1OCCOCCN1CCOCC1 | 8.89% | 8.52% | 2.58% | 3.79%
CC1CN(CCCCOc2ccc(C(C)C)cc2)CC(C)O1 (stereo unspecified) | 26.4% | 12.1% | 2.42% | 7.83%
N=c1c2c(-c3ccccc3)c(-c3ccccc3)n(Cc3ccco3)c2ncn1Cc1ccccc1 | 38.2% | 8.14% | 9.7% | 12.7%
C=C(C)C1CC=C(CN2CC(C)OC(C)C2)CC1 (stereo unspecified) | 4.31% | 11.8% | 13.7% | 1.76%
C=C(C)C1CC=C(CN2CCC(C(=O)OCC)CC2)CC1 (stereo unspecified) | 1.06% (inactive) | -2.77% | 0.148% | 1.89%
Cc1ccc(CN2CCN(/N=C/c3cc(Br)ccc3O)CC2)cc1 | 21.1% | 18.9% | 7.91% | 7.23%
O=C(COc1ccc(Cl)cc1Cl)NCCCN1CCOCC1 | 6.19% | 7.28% | 3.8% | 6.18%
CCOC(=O)COc1ccccc1C1Nc2ccccc2C(=O)N1c1cccc(Cl)c1 (stereo unspecified) | 21.1% | 19.4% | 13% | 24.8%
CC1CN(CC(O)COc2ccc(C(C)C)cc2)CC(C)O1 (stereo unspecified) | 8.85% | 5.56% | -2.84% | -1.47%
Cc1ccc(Cl)c(OCCCCN(C)Cc2ccccc2)c1 | 72.6% | 31.6% | 11.1% | 22.1%
O=C(COc1ccc(Br)cc1F)NC1CCN(Cc2ccccc2)CC1 | 27.4% | 12.6% | 2.81% | 5.41%
CCCCCCOc1ccc(CN2CCN(CCO)CC2)cc1 | 33.4% | 20.7% | 7.37% | 13.6%
CC1CCCN(CCOCCOc2ccc(Cl)cc2Br)C1 (stereo unspecified) | 53.2% | 23.4% | 8.13% | 12.7%
CC1CC(C)CN(CCOc2ccc(Cl)cc2Cl)C1 (stereo unspecified) | 46.7% | 30.7% | 8.64% | 14.7%
Cc1ccc(C(=O)c2c(NC(=O)c3ccncc3)sc3c2CCCC3)cc1 | 14.7% | 19.8% | 13.5% | 18.9%
O=C(C1COc2ccccc2O1)N1CCN(Cc2ccc3c(c2)OCO3)CC1 (stereo unspecified) | 7.29% | 6.43% | -1.59% | 5.57%
Clc1ccc(Cn2nnc(-c3ccc(CN4CCOCC4)cc3)n2)cc1 | 26.7% | 11.9% | 8.16% | 12.6%
O=C(OCn1ncc(Cl)c(Cl)c1=O)c1ccc(C(F)(F)F)cc1 | 46.7% | 50.9% | 13.4% | 16.2%
Cc1cc(C(C)(C)C)ccc1OCCN1CCCC1 | 18.2% | 18.4% | 7.77% | 7.54%
CC(C)c1ccc(C(=O)CSc2n[nH]c(-c3ccncc3)n2)cc1 | 12.5% | 7.43% | 4.42% | 13.6%
Cc1nc(NC(=O)c2ccccc2)sc1-c1csc(NCc2ccccc2)n1 | 32.7% | 20% | 6.67% | 15%
O=S(=O)(c1ccc(Cl)cc1)N1CCN(C2CCN(Cc3ccccc3)CC2)CC1 | 10.4% | 7.74% | 0.396% | 3.66%
CCCCCOc1ccc(Cl)cc1CN1CCOCC1 | 17.8% | 26% | 7.83% | -7.6%
